From PubChem BioAssay (NCI)
Several values for one entry are separate records, joined by “and”; a condition that tells them apart may be missing. Equal entries are not always repeated.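 A five-concentration, 48-hour dose response in 96-well plates underlies each endpoint, interpolated linearly between surrounding concentrations. Here, GI50 denotes the concentration required for 50% inhibition of growth. Definition used: TGI = concentration required for complete inhibition of growth.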 *1 amine or outer side, *2 acyl side, *3 side chain or, on linkers, in order; H or OH if unused. Where a SMILES comes first, the peptide text is derived from it. CO = O=C([*:1])[*:2]

Tests used:
Test in all cases: NCI anticancer screen, dose series, 48 h
SF-295 CNS = test system: SF-295 CNS
RXF 393 renal = test system: RXF 393 renal
SN12C renal = test system: SN12C renal
A549 NSCLC = test system: A549 NSCLC
HT29 colon = test system: HT29 colon
MDA-MB-435 = test system: MDA-MB-435
OVCAR-8 ovarian = test system: OVCAR-8 ovarian
NCI-H226 lung = test system: NCI-H226 lung

| Compound | TGI (SF-295 CNS) | TGI (RXF 393 renal) [µM] | TGI (SN12C renal) [µM] | TGI (A549 NSCLC) [µM] | TGI (HT29 colon) | TGI (MDA-MB-435) [µM] | TGI (OVCAR-8 ovarian) | GI50 (SF-295 CNS) | GI50 (NCI-H226 lung) | TGI (NCI-H226 lung) | GI50 (RXF 393 renal) [µM] | GI50 (SN12C renal) [µM] | GI50 (A549 NSCLC) [µM] | GI50 (HT29 colon) | GI50 (MDA-MB-435) [µM] | GI50 (OVCAR-8 ovarian) |
| --- | --- | --- | --- | --- | --- | --- | --- | --- | --- | --- | --- | --- | --- | --- | --- | --- |
| C/C=C/C/C=C/CCC(=O)C1OC1C(N)=O (stereo not given) | 30 µM | 21.7 | 39.8 | 56 | 33.1 µM | 28.3 | 26.7 µM |  |  |  |  |  |  |  |  |  |
| N#Cc1c(N)nc(N2CCOCC2)c(C#N)c1-c1cccc(O)c1 | > 100 µM | 95.1 | > 100 | > 100 | > 100 µM | > 100 | > 100 µM | > 100 µM | > 100 µM | > 100 µM | 38.1 | 69 | > 100 | > 100 µM | > 100 | > 100 µM |
| O=C1CN2CCC1C/C2=C\c1ccnc2c(Cl)cccc12 (stereo not given) | > 100 µM | > 100 | > 100 | > 100 | > 100 µM | > 100 | > 100 µM | 46.5 µM | 90.5 µM | > 100 µM | > 100 | > 100 | > 100 | 42.6 µM | 75.6 | 61.6 µM |
| CCCCCCCCO/N=C\c1c2c(O)c3c(O)c(C)c4c(c3c1O)C(=O)C(C)(O/C=C\C(OC)C(C)C(OC(C)=O)C(C)C(O)C(C)C(O)C(C)/C=C\C=C(\C)C(=O)N2)O4 (stereo not given) | 2.56 µM | 3.18 | 9.22 | 6.42 |  | 5.9 | 6.97 µM | 0.953 µM | 2.05 µM | 9.71 µM | 1.14 | 2.39 | 1.73 |  | 1.43 | 1.75 µM |
| Cc1cc(Nc2ncc(Cl)c(Nc3ccccc3S(=O)(=O)C(C)C)n2)c(OC(C)C)cc1C1CCNCC1 | 2.81 µM and 3.16 µM | 2.64 | 3.29 | 2.69 | 1.24 µM and 1.27 µM | 2.16 | 3.59 µM and 4.23 µM | 1.43 µM and 1.63 µM | 1.29 µM and 1.56 µM and 1.7 µM | 3.1 µM and 3.95 µM and 4.25 µM | 1.27 | 1.76 | 1.34 | 0.237 µM and 0.304 µM | 0.944 | 1.74 µM and 1.41 µM |
| N#C/C(=C\c1ccc(Cl)cc1)n1nnc2cc(F)c(F)cc21 | 5.53 µM | 3.11 | 4.02 | 21.5 | 5.61 µM | 4.42 | > 100 µM | 2.26 µM | 2.02 µM | 4.54 µM | 1.46 | 1.89 | 2.7 | 2.5 µM | 1.76 | 3.27 µM |
| CN1CCN(Cc2ccc(NC(=O)c3[nH]ncc3Nc3ccnc4ccsc34)cc2)CC1 | 14.2 µM | 4.76 | 14.4 | 14.5 | 33.8 µM | 17.9 | 16.4 µM | 3.73 µM | 2.35 µM | 13.4 µM | 2.01 | 2.78 | 3.04 | 2.04 µM | 3.22 | 3.63 µM |
| C=C1C(=O)O[C@H]2[C@H]1CC/C(COC(=O)NCCc1c[nH]c3ccccc13)=C\CC[C@@]1(C)O[C@@H]21 | 21.4 µM | 2.56 | 3.15 | 25.4 | 3.78 µM | 3.9 | 5.21 µM | 9.68 µM | 1.8 µM | 3.39 µM | 1.16 | 1.2 | 10.7 | 1.55 µM | 1.62 | 1.86 µM |
| CCN(CC)CCCN1C(=O)c2c(c(C)c3c(oc4cc(O)ccc43)c2C)C1=O | 3.32 µM | 3.24 | 3.41 | 3.54 | 2.85 µM | 3.22 | 3.61 µM | 1.84 µM | 4.47 µM | 27.4 µM | 1.54 | 1.81 | 1.85 | 1.39 µM | 1.76 | 1.78 µM |
| Cn1c(Cc2ccccc2)nc2cc3ccccc3cc21 | 75.6 µM | > 100 | 39.1 | > 100 | > 100 µM | 80 | 63.2 µM | 25.5 µM | 22.7 µM | 56.8 µM | 35.6 | 18.7 | 31.8 | 43.3 µM | 25.2 | 24.6 µM |
| CCN(CC)CCCC(C)N/C(c1cccc(OC)c1)=c1\c(=O)[nH]n(-c2c3ccccc3nc3ccccc23)c(=O)\c1=C(/NC(C)CCCN(CC)CC)c1cccc(OC)c1 (stereo not given) | 3.86 µM | 2.55 | 10.8 | 4.25 | 2.51 µM | 2.98 | 7.77 µM | 1.74 µM | 1.16 µM | 3.63 µM | 1.02 | 1.74 | 0.992 | 0.591 µM | 1.45 | 0.937 µM |
| COc1ccc(C(=O)c2ccc(OC)cc2OC)cc1 | 9.4 µM | 6.15 | > 100 | > 100 | 24.4 µM | 2.34 | > 100 µM | 2.33 µM |  |  | 1.56 | 5.58 | 5.55 | 2.92 µM | 0.361 | 4.55 µM |
| O=c1[nH]cnc2c1nnn2[C@@H]1O[C@H](CO)[C@@H](O)[C@H]1O |  | > 100 | > 100 | > 100 | > 100 µM | > 100 | > 100 µM |  | 30.1 µM | > 100 µM | 4.31 | 6.4 | 27.5 | 4.51 µM | 6.26 | 0.843 µM |
| O=C(/C=C/c1ccc2c(c1)OCO2)c1ccccc1 | 28.8 µM | 28.7 | 40.6 | 49 |  | 19.3 | 58.5 µM | 11.5 µM | 23.4 µM | 78.5 µM | 14.3 | 18.6 | 18.7 |  | 3.58 | 17.4 µM |
| Fc1ccc(Nc2ccc3cc(OCCCN4CCOCC4)ccc3n2)cc1F | 4.3 µM | 7.32 | > 100 | > 100 | 5.47 µM | 68 | > 100 µM | 1.89 µM |  |  | 2.45 | 9.77 | 5.36 | 2.06 µM | 3.26 | 5.51 µM |
| COc1cc(/C=C/C(=O)CC(=O)/C=C/c2ccc(OC(=O)CCNC34CC5CC(CC(C5)C3)C4)c(OC)c2)ccc1OC(=O)CCNC12CC3CC(CC(C3)C1)C2 | 6.99 µM |  | 17.8 | 28.5 | 3.2 µM | 6.53 | 13.4 µM | 2.56 µM | 11.8 µM | 30.5 µM |  | 3.32 | 10.3 | 1.75 µM | 2.08 | 3.71 µM |
| COc1ccc2c(c1)/C(=C/c1c(-c3ccc(C)cc3)nc3sc(C)cn13)C(=O)N2 | > 100 µM |  | 31.9 | > 100 | > 100 µM | > 100 | > 100 µM | 11 µM | 20.1 µM | 95.9 µM |  | 13.9 | 12.5 | 8.92 µM | 19 | 12.4 µM |
| CC(=O)O[C@H]1C(=O)[C@@]2(C)[C@H]([C@H](OC(=O)c3ccccc3)[C@]3(O)C[C@H](OC(=O)[C@H](OC(=O)CCC(=O)OC4CCC(S/N=C(N)/N=C(\N)N(C)C)CC4)[C@@H](NC(=O)c4ccccc4)c4ccccc4)C(C)=C1C3(C)C)[C@]1(OC(C)=O)CO[C@@H]1C[C@@H]2O (stereo not given in full) | 0.0818 µM | > 50 | > 50 | > 50 | > 50 µM |  | > 50 µM | 0.0116 µM | 23.4 µM | > 50 µM | 0.0135 | 0.0325 | 0.0084 | < 0.005 µM |  | 0.0221 µM |
| N#C/C(=C\c1ccc(Br)cc1)n1nnc2cc(F)c(F)cc21 | 3.27 µM | 2.77 |  | 5.62 | 3.62 µM | 3.23 | 3.99 µM | 1.58 µM | 2.17 µM | 4.99 µM | 1.37 |  | 2.14 | 1.85 µM | 1.38 | 1.69 µM |
| CC(C)C(NC(=O)C(CCCN=C(N)N)NC(=O)NC(Cc1ccccc1)C(=O)O)C(=O)NC(C=O)CCCN=C(N)N (stereo not drawn) ({Phe-CO}-Arg-Val-Arg-aldehyde; configuration not given here) | > 5 µM |  | > 5 | > 5 | > 5 µM | > 5 | > 5 µM | > 5 µM | > 5 µM | > 5 µM |  | > 5 | > 5 | > 5 µM | > 5 | > 5 µM |
| COc1ccc2c(c1)C(=O)c1c-2c(N2CCN(C(=O)CN(C)C)CC2)nc2ccccc12 | 41 µM |  | 27.9 | 37 | 12.7 µM | 98 | > 100 µM | 13.7 µM | 35.7 µM | > 100 µM |  | 13 | 13.8 | 2.13 µM | 30.2 | 24.7 µM |
